Source: patent publication EP4467141A1, “PYRAZOLO-QUINOLINES AS SELECTIVE INHIBITORS OF GENOTOXIC STRESS-INDUCED IKK/NF- KB PATHWAYS FOR CANCER THERAPY” (Max-Delbrück-Centrum für Molekulare Medizin in der …, priority 2023, dated 2024)

Columns and labels:
U2-OS cells [1] = assay: Cell viability assay; format: cell-based; settings: for cell viability, etoposide co-treatment: 10 µM plus etoposide 50 µM, compared to etoposide alone; for cell viability, compound alone: 10 µM, 6, 24, and 48 hours, compared to DMSO
Procedure: (§1) Fig.4: MW01 and MW05 reduce cell viability and increase p53-mediated apoptosis upon etoposide co-treatment. (A) Representative light microscopy images of U2-OS cells following treatment with DMSO, MW01 (10 µM), MW05 (10 µM), or etoposide (50 µM), or co-treatment with MW01 (10 µM) and etoposide (50 µM), or MW05 (10 µM) and etoposide (50 µM) at 24 (left) and 48 hours (right). (B) Quantification of cell viability using CellTiter-Fluor Cell Viability Assay at 6, 24, and 48 hours. Treatment with 0.1% SDS 30 minutes prior to assay was used as positive cell death control. (ns: not significant; *, **, ***: p<0.05, p<0.01, p<0.001). (C) U2-OS cells were treated with DMSO, MW01 (10 µM), MW 05 (10 µM), or etoposide (50 µM), or co-treated with MW01 (10 µM) and etoposide (50 µM), or MW05 (10 µM) and etoposide (50 µM), as indicated. After 24 hours, whole cell lysates were prepared and analyzed by Western blotting for p65 phosphorylation (S536), caspase-3 and cleaved caspase-3 (left panel) and for p53 and γH2AX) (right panel). Vinculin was used as loading control.
1×10^4 cells per well were seeded in a 96-well plate and incubated overnight. The day after, cells were treated with 10 µM of compounds under investigation, 50 µM Etoposide or 10 µM Cisplatin, alone or in combination, for appropriate time points. DMSO and 10% of Triton-X100 were used as negative and positive control respectively. Luminescent staining was performed using CellTiter-Glo Luminescent Cell Viability Assay (Promega, G7570), adding in each well a volume of CellTiter-Glo reagent equal to the volume of cell culture medium present into the well. After 1h of incubation at 37°C, luminescence was read by BioTek Cytation 1 Cell Imaging Multimode Reader (Agilent).
We hypothesized that due to the important function of the DNA double strand-induced IKK-NF-κB pathway as in anti-apoptotic signalling (Stilmann et al., 2009), both MW01 and MW05 should sensitize cells to DNA damaging agents, and therefore support their potential use to potentiate genotoxic therapies. To characterize the effect of MW01 and MW05 on cell viability, we treated cells with both compounds alone or in combination with etoposide to induce DNA lesions (Fig. 4A). […] The same effect in cell viability reduction was confirmed for MW01 and MW05 in co-treatment with cisplatin, another widely used chemotherapeutic drug. To investigate the underlying molecular causes of this phenotype, we looked at markers of NF-κB and p53 activation, DNA damage, and apoptosis after single and co-treatment with MW01, MW05, and etoposide (Fig 4C). MW01 and MW05 abrogated etoposide-stimulated p65 phosphorylation, thereby validating our inhibition of IKK and NF-κB activity. […]

U2-OS cells [2] = assay: Western blot of apoptosis and DNA damage markers (cleaved caspase-3, PARP1 cleavage, p53, γH2AX) in U2-OS cells; format: cell-based; settings: for cleaved caspase-3, etoposide co-treatment: 10 µM plus etoposide 50 µM; for cleaved caspase-3, etoposide co-treatment / cleaved caspase-3, compound alone: 24 hours; for cleavage of PARP1, as apoptotic marker / cleaved caspase-3, compound alone: 10 µM; for cleavage of PARP1, as apoptotic marker: 8 hours after 10 Gy irradiation
Procedure: as §1
Fig.7: (A) Immunoprecipitation of IKKγ from HEK293 lysates pre-treated for 1 hour with DMSO, MW01 or MW05, then irradiated (IR, 20 Gy) and lysed. (B) Western blot analysis of MEF cells pre-treated with DMSO, MW01, MW05 or ATM inhibitor KU55933 and irradiated (IR, 20 Gy). Lysates were subjected to SDS-PAGE/WB. The specific IKKγ S85 band (lower band) was identified by induction following irradiation and by sensitivity to ATMi and λ- phosphatase (λ-PP) treatment. (C) Western blot analysis of U2os cells pre-treated for 1 hour with the indicated substances, irradiated (IR, 20 Gy) and whole cell lysates probed for poly(ADP)-ribose. (D) Western blot analysis of cytoplasmic and nuclear fractions from U2-OS cells for p-ATM (S 1981), after 1 hour pre-treatment with DMSO, MW01 (10 µM), or MW05 (10 µM) and 45 min following irradiation (IR, 20 Gy). PARP1 and LDHA are used as loading controls for nuclear and cytoplasmic fractions respectively. (E) mRNA expression analysis of CLK4 (top), 48 hours after transfection with siNC or siCLK4. mRNA expression analysis of NFKBIA (bottom), 48 hours after transfection with siNC or siCLK4. Values normalized to unstimulated siNC expressing cells. Statistical comparison was made between experimental conditions and paired siNC control. ns: not significant; **, ***, ****: p<0.01, p<0.001, p<0.0001. (F) Western blot analysis of p65 phosphorylation (S536) and CLK4 expression after transfection with siNC or siCLK4 in unstimulated, after 90 min irradiation (IR, 20 Gy), or after 20 min TNFα (10 ng/mL) conditions in U2-OS cells. Vinculin is used as loading control. Note that CLK4 and p-p65 were blotted on separate membranes, with respective vinculin blots underneath. (G) MW01 and MW05 are inhibitors of DNA damage-induced p65 nuclear translocation. U2-OS cells were pre-treated with DMSO, MW01 or MW05. Etoposide was added and after 2 hours cells were fixed and nuclei stained with DAPI. P65 and γH2AX were stained by immunofluorescence and images taken at a confocal Zeiss 710 LSM microscope with a 40x oil objective. (H) Western blot analysis of U2-OS cells 8 hours after 10 Gy irradiation following 1 hour pre-treatment with 10 µM DMSO, MW01, or MW05. Tubulin was used loading control. (I) mRNA expression analysis of BIRC3 in U2-OS cells 8 hours after 10 Gy irradiation following 1 hour pre-treatment with 10 µM DMSO, MW01, or MW05 and. Values were normalized to DMSO-treated unstimulated cells.
Cells were collected by scraping and lysed in Baeuerle lysis buffer supplemented with Protease (Thermo Fisher Scientific, 78429) and Phosphatase (Thermo Fisher Scientific, 78420) inhibitors after the appropriate treatment and time point. […]

| Structure (SMILES) | cell viability, etoposide co-treatment (U2-OS cells [1]) | cell viability, compound alone (U2-OS cells [1]) | cleaved caspase-3, etoposide co-treatment (U2-OS cells [2]) | cleavage of PARP1, as apoptotic marker (U2-OS cells [2]) | cleaved caspase-3, compound alone (U2-OS cells [2]) |
| --- | --- | --- | --- | --- | --- |
| COc1ccc2cc3c(N)nn(C(=O)c4cccc(N(C)C)c4)c3nc2c1 [MW05, (3-Amino-7-methoxypyrazolo[3,4-b]quinolin-1-yl)-[3-(dimethylamino)phenyl]methanone] | significant reduction after 24 hours | slightly reduced cell viability | increased | potentiated | did not observe an increase |
| COc1ccc2c(c1OC)c(=O)n1c3ccc(O)cc3c3ccnc2c31 [MW01, 5-Hydroxy-10,11-dimethoxy-9H-benzo[c]indolo[3,2,1-ij][1,5]naphthyridin-9-one] | significantly reduced cell viability after 6 hours | slightly reduced cell viability | increased | potentiated | did not observe an increase |
